Measured values as given in patent US11191722B2, “Treatment of diabetes mellitus by long-acting formulations of insulins” (SANOFI, priority 2013, dated 2021).

Test system: patients with type 2 diabetes mellitus
Details: in vivo
Source text: Hypoglycemia, occurrence of adverse events particularly treatment-emergent adverse events (TEAEs) and serious adverse events (SAEs), injection site reactions and hypersensitivity reactions.
Safety analyses were descriptive, based on the safety population.

Substance: insulin glargine [HOE901-U300]
- Death on-study during first 6 months: 2 (0.5%) n (%)
- Death post-study: 0 n (%)

Substance: insulin glargine [Lantus]
- Death on-study during first 6 months: 2 (0.5%) n (%)
- Death post-study: 0 n (%)
